Data on four compounds can be found in US10577371B2, “Small molecule histone methyltransferase SUV39H1 inhibitor and uses thereof” (Augusta University Research Institute, Inc., priority 2017, dated 2020).

For series [1] the following is noted: background statement; cited from earlier work.
For series [2], the system named is SW620 and LS411N cells. Kind of series: Apoptosis of human colon carcinoma cells, PI/annexin V flow cytometry. It counts as cell-based. The following applies: 0.01, 0.05, 0.25 and 1 μM for 2 days. The method, then: SW620 and LS411N cells were cultured in the presence of F5446 at doses of 0.01, 0.05, 0.25, and 1 μM for 2 days. Cells were stained with propidium iodide (“PI”) and annexin V and analyzed for apoptosis by flow cytometry.
Apoptotic cell death was calculated as the difference between the percentage of PI^+ Annexin V^+ cells in the presence of F5446 and the percentage of PI^+ Annexin V^+ cells in the absence of F5446.
Background: In flow cytometry, cells or beads pass a laser one at a time.

The subject of series [3] is H3K9me3 at the FAS promoter region in SW620 and LS411N cells. Put plainly: ChIP of H3K9me3 at the FAS promoter region in colon carcinoma cells. Format: cell-based, human. The conditions noted are these: 25 and 250 nM for 2 days. The method, then:
SW620 and LS411N cells were treated with F5446 at 25, and 250 nM for 2 days and analyzed by ChIP using H3K9me3-specific antibody. The H3K9me3 antibody-immunoprecipitated DNA was amplified by PCR with FAS promoter DNA-specific primers and normalized to input genomic DNA.

Series [4] deals with SW620 and LS411N cells. Put plainly: Sensitisation of colon carcinoma cells to FasL-induced apoptosis. It counts as cell-based, human. The conditions noted are these: F5446 at sublethal dose plus FasL, 3 days. The method, then: SW620 and LS411N cells were cultured in the presence of F5446 and FasL, either alone or in combination, for 3 days. Cells were stained with PI and Annexin V and analyzed for apoptosis.
Apoptotic cell death was calculated as the difference between the percentage of PI^+ Annexin V^+ cells in the presence of F5446, FasL, or both and the percentage of PI^+ Annexin V+ cells in the absence of F5446 or FasL.

In series [5] the test system is CD8+ CTLs from CT26 tumor tissues. Put plainly: H3K9me3 ChIP and qPCR in tumor-infiltrating CD8+ CTLs of CT26 tumor bearing mice. Format: in vivo. The conditions noted are these: CD8+ CTLs from CT26 tumors, F5446-treated mice. On the procedure:
CD8^+ CTLs were isolated from tumor tissues of the control and the F5446-treated groups of CT26 tumor bearing mice (from Example 13). ChIP analysis of H3K9me3 level in the promoter regions of GZMB, PRF1, FASLG and IFNG was performed. Further a qPCR analysis was performed to determine the expression levels of all four promoter regions.

Series [6] relates to CD3+ T cells from spleens of C57BL/6 mice. Kind of series: H3K9me3 ChIP and effector expression in activated CD3+ T cells. It counts as cell-based. The conditions noted are these: activated mouse CD3+ T cells. The method, then: CD3^+ T cells were purified from spleens of C57BL/6 mice. The cells were stimulated in anti-CD3/CD28-coated plates for 2 days in the absence or presence of F5446 (50 nM). The resting, stimulated and treated T cells were then analyzed by ChIP (Chromatin Immunoprecipitation) with anti-H3K9me3 antibody and gene-specific PCR primers.

The target in series [7] is T1, recombinant human SUV39H1 (Homo sapiens, UniProt O43463).
T1 construct: purchased Reaction Biology Corp. (Malvern Pa.)
T1 sequence (O43463 1-412): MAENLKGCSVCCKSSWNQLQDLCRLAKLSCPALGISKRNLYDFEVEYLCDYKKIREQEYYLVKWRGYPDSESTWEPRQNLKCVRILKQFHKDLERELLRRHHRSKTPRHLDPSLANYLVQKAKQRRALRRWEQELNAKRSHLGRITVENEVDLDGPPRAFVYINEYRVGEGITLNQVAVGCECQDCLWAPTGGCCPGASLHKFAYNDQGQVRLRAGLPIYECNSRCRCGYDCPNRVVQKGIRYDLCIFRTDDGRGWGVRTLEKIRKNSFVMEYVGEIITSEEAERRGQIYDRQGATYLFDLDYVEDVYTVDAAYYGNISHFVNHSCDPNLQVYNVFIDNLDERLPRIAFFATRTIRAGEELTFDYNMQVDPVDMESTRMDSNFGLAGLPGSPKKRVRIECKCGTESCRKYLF
Kind of series: HMTase EC50 assay with recombinant human SUV39H1 (Reaction Biology Corp.). It counts as biochemical. The following applies: 10-dose, 3-fold serial dilutions; S-(methyl-3H) Adenosyl-L-Methionine; H3 peptide (N1-21); read-out: EC50 against recombinant human SUV39H1 in vitro. On the procedure: F5446 was sent to Reaction Biology Corp. (Malvern Pa.) to validate its inhibitory activity and to determine its EC50 for SUV39H1. F5446 was assayed in a 10-dose EC50 mode with 3-fold serial dilutions using recombinant human SUV39H1 protein as the methyltransferase, S-(methyl-3H) Adenosyl-L-Methionine as the substrate, and H3 peptide (N1-21) as the template in the presence of indicated doses of F5446. The EC50 was calculated with Prizm Program.

Series [8] concerns Fas in SW620 and LS411N cells. Put plainly: Fas protein level on tumor cell surface by flow cytometry. It counts as cell-based, human. The conditions noted are these: 3 days, 25 and 250 nM. The method, then: SW620 and LS411N cells were cultured in the presence of F5446 for 3 days. Fas protein levels were analyzed by flow cytometry (FIG. 12A-12B).
Series [9] can be described thus: Toxicity of F5446 in mice: survival and serum liver enzyme profile. It counts as in vivo. On the procedure: F5446 was injected into mice at a dose of 10 mg/kg body weight every 2 days for 6 days. Mouse survival was recorded. Serum was collected from the mice and analyzed for liver enzyme profiles at the University of Georgia Veterinary Diagnostic Laboratories.

Series [10] has as its system MC38 and CT26 colon carcinoma tumors. Put plainly: Colon carcinoma growth in vivo, MC38 in C57BL/6 and CT26 in BALB/c mice. The following applies: F5446 10 mg/kg. The method, then: Two different tumor cells were injected into two different strains of mice. MC38 cells (1.5×10^5 cells/mouse) were injected to thirty C57BL/6 mice subcutaneously. CT26 cells (2×10^5 cells/mouse) were injected to thirty BALB/c mice subcutaneously. Twenty mice from each strain with relatively similar sizes of tumors were randomized into four groups at day 8 after tumor cell injection. The four groups of tumor-bearing mice were treated with IgG/solvent (control), […] (10 mg/kg), anti-PD-1 mAb ([…]), and […]+anti-PD-1 mAb, respectively, every two days for 14 days.

For another series, the system named is AB1-HA tumor model. The following applies: CTX treatment at Day 9; cited from earlier work.
Where [11] appears, read: mouse serum, 10 mg/kg every 2 days for 6 days.
Where [12] appears, read: MC38/C57BL/6 and CT26/BALB/c, anti-PD-1 mAb 200 mg/mouse, every two days for 14 days.

Turning to `CN1C(=O)[C@]23SS[C@@]1(C)C(=O)N2[C@H]1Nc2ccccc2[C@@]1([C@@]12c4ccccc4N[C@@H]1N1C(=O)[C@@]4(C)SS[C@]1(C(=O)N4C)[C@H]2O)[C@@H]3O` [verticillin A], the toxicity in vivo entry in series [1] was “toxic in vivo”.

Turning to `CN1C(=O)[C@@]23C[C@]4([C@]56C[C@@]78SS[C@@](CO)(C(=O)N7[C@H]5Nc5ccccc56)N(C)C8=O)c5ccccc5N[C@@H]4N2C(=O)[C@]1(CO)SS3` [chaetocin], in series [1], the toxicity in vivo result is listed as “toxic in vivo”.

Usually EC50 stands for the concentration needed to bring the measured effect to its halfway point. As to `COC(=O)c1cc2c(n1S(=O)(=O)c1ccc(Cl)cc1)C(=O)C(=O)c1[nH]cc(C(=O)OCc3ccccc3)c1-2` [F5446, 1-Benzyl 7-methyl 6-(4-chlorobenzenesulfonyl)-4,5-dioxo-3H,4H,5H,6H-pyrrolo[3,2-e]indole-1,7-dicarboxylate], the apoptotic cell death result with SW620 and LS411N cells [2] was “induced human colon carcinoma cell death in a dose-dependent manner”. Besides, in series [3], the “H3K9me3 at the FAS promoter region” value is reported as “inhibits H3K9me3 at the FAS promoter region”. The “sensitivity to FasL-induced apoptosis” value in the series with SW620 and LS411N cells [4] is recorded as “significantly increased human colon carcinoma cells to FasL-induced apoptosis”. The “expression levels of granzymeB, perforin, FasL and IFNγ in tumor-infiltrating CTLs (qPCR)” value in series [5] was “significantly increased”. In addition, the “H3K9me3 levels in the promoter regions of GZMB, PRF1, FASLG and IFNG in tumor-infiltrating CTLs” value in series [5] (ChIP) is on record as “decreased H3K9me3 levels”. Moreover, the “H3K9me3 levels in the promoter regions of GZMB, PRF1, FASLG and IFNG” value in series [6] (F5446 50 nM, 2 days, ChIP) was “reduced H3K9me3 levels”. Moreover, the “expression of GZMB, PRF1, FASLG and IFNG” value in series [6] (increasing doses of F5446) is reported as “increased expression of all four effector genes in a dose-dependent manner”. Besides, the 50% effective concentration (EC50) in series [7] came out at 496 nM. For the same compound, the “tumor cell surface Fas expression (MFI)” value in series [8] is “up-regulated tumor cell surface Fas expression”. This compound had a survival rate in series [9] (mice, 10 mg/kg body weight every 2 days for 6 days) of 100%. Besides, the “liver enzyme profile, overall finding” value in [9] (mice, 10 mg/kg every 2 days for 6 days) is reported as “did not cause toxic levels of liver enzymes in vivo”. In series [9] (setting [11]), the ALP amounted to 60.3 U/L, the ALT was determined as 71.3 U/L, the AST came to 444.3 U/L and the Albumin is 3.3 g/dL. Moreover, in [9] (setting [11]), the Cholesterol worked out at 119 mg/dL, the GGT is reported as under 3 U/L, the “Total Bilirubin” value was 0.1 mg/dL and the Total protein was found to be 5.7 g/dL. In series [10] (setting [12]), the “established tumor growth over time (tumor volume)” value is recorded as “suppressed the established tumor growth in a time-dependent manner”; the “tumor growth as measured by tumor size and tumor weight” value is “significantly reduced tumor growth”. In [10] (tumor tissues of C57BL/6 and BALB/c mice), the “expression levels of granzymeB, perforin, FasL and IFNγ in tumor tissues (qPCR)” value is on record as “significantly increased”.

With `O=P1(N(CCCl)CCCl)NCCCO1` (stereo not shown) [CTX, Cyclophosphamide], the cure rate in the series on AB1-HA tumor model is given as 75%.
